Format in all cases: cell-based
One test concerns the target T1, KRAS G12D (Homo sapiens, UniProt P01116, G12D).
T1 construct: AsPc-1-KRAS (G12D)-HiBit-KI cell (Pharmaron); host or cells: AsPc-1-KRAS (G12D)-HiBit-KI cells (HiBiT knock-in at the endogenous KRAS locus)
Kind of test: KRAS G12D HiBit assay. As to conditions: AsPc-1-KRAS (G12D)-HiBit-KI cell, compound treatment for 24 hours, absolute DC50. The method in brief:
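HiBiT luminescence, detected by adding lytic buffer, substrate and LgBiT protein, served as the KRAS G12D read-out. Compounds, serially diluted 3-fold over 10 points from 0.3 mM DMSO stock, were on cells for 24 h; percent inhibition normalized to cells given 0.1% DMSO only.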

The next test deals with T2, KRAS (Homo sapiens, UniProt P01116).
T2 construct: endogenous in cells; host or cells: KE39 (KRAS amplified) cells
Kind of test: KRASamp MSD assay. Particulars: KE39 (KRAS amplified) cells, treated with test compounds for 24 hr, MSD readout of KRAS degradation. The method in brief: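 Degradation DC50 derived by curve fitting, with KRAS levels quantified by MSD electrochemiluminescence (capture/detection antibodies, recombinant WT KRAS standard). Lysates prepared from KE39 cells (KRAS amplified) exposed to test compounds for 24 hr.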

The target of a further test is T3, KRAS G12V (Homo sapiens, UniProt P01116, G12V).
T3 construct: SW620-KRAS (G12V)-HiBit-KI cell (Pharmaron); host or cells: SW620-KRAS (G12V)-HiBit-KI cells (HiBiT knock-in at the endogenous KRAS locus)
Kind of test: KRAS G12V HiBit assay. Particulars: SW620-KRAS (G12V)-HiBit-KI cells, compound treatment for 24 hours, class symbols. The method in brief: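 Luminescence from lytic Nano-Glo HiBiT detection with LgBiT read KRAS G12V levels after 24 h compound exposure. Dilutions were 10-point, 3-fold, from a 0.3 mM DMSO stock. Degradation activity was normalised to cells given 0.1% DMSO alone.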
In general terms: The HiBiT peptide binds its large partner to form an active luciferase.

[1] abbreviates: numeric bounds given in place of class symbols.

T1 sequence (P01116 1-188 isoform P01116-2 G12D): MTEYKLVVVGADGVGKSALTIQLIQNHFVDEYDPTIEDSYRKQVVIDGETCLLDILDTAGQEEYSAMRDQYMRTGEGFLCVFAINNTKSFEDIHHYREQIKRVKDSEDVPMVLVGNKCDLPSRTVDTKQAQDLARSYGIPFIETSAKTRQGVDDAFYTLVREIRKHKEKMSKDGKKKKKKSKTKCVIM
T3 sequence (P01116 1-188 isoform P01116-2 G12V): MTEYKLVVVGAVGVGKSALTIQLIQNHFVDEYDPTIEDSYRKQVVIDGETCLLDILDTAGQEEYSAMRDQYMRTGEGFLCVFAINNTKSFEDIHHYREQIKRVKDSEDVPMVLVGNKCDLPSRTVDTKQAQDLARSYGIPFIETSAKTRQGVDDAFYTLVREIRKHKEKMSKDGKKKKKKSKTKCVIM
T2 sequence (P01116 1-188 isoform P01116-2): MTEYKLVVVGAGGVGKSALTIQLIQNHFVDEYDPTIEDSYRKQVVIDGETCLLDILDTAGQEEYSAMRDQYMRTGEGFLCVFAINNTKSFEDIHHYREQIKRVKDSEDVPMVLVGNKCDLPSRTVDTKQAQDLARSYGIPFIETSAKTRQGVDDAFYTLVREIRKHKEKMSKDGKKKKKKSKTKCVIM

In the case of `CCc1c(F)ccc2cc(O)cc(-c3cc4nc(OC[C@@]56CCCN5[C@H](COC(=O)N5CCC(CN7CCC(c8ccc9c(c8)n(C)c(=O)n9C8CCC(=O)NC8=O)CC7)CC5)CC6)nc(N5CCC[C@@](C)(O)C5)c4cn3)c12` (stereo partly drawn) [Compound 377, ((3S,7aS)-7a-(((7-(8-ethyl-7-fluoro-3-hydroxynaphthalen-1-yl)-4-((R)-3-hydroxy-3-methylpiperidin-1-yl)pyrido[4,3-d]pyrimidin-2-yl)oxy)methyl)hexahydro-1H-pyrrolizin-3-yl)methyl 4-((4-(1-(2,6-dioxopiperidin-3-yl)-3-methyl-2-oxo-2,3-dihydro-1H-benzo[d]imidazol-5-yl)piperidin-1-yl)methyl)piperidine-1-carboxylate], the DC50 at KRAS G12D (class symbols) was under 100 nM; on KRAS it was under 1 nM; on KRAS G12V, under 10 nM.

On to `CCc1c(F)ccc2cc(O)cc(-c3cc4nc(OC[C@@]56CCCN5[C@H](COC(=O)N5CCC7(CC5)CC(N5CCC(c8ccc9c(c8)n(C)c(=O)n9C8CCC(=O)NC8=O)CC5)C7)CC6)nc(N5CCC[C@@](C)(O)C5)c4cn3)c12` (stereo partly drawn) [Compound 461, ((3S,7aS)-7a-(((7-(8-ethyl-7-fluoro-3-hydroxynaphthalen-1-yl)-4-((R)-3-hydroxy-3-methylpiperidin-1-yl)pyrido[4,3-d]pyrimidin-2-yl)oxy)methyl)hexahydro-1H-pyrrolizin-3-yl)methyl 2-(4-(1-(2,6-dioxopiperidin-3-yl)-3-methyl-2-oxo-2,3-dihydro-1H-benzo[d]imidazol-5-yl)piperidin-1-yl)-7-azaspiro[3.5]nonane-7-carboxylate], for which the DC50 is under 100 nM at KRAS G12D (class symbols), under 1 nM on KRAS and under 10 nM at KRAS G12V.

Take `C#Cc1c(F)ccc2cc(O)cc(-c3ncc4c(N5CCC[C@@](C)(O)C5)nc(OC[C@]56CCCN5[C@@H](COC(=O)N5CCC(CN7CCC(c8ccc9c(c8)n(C)c(=O)n9C8CCC(=O)NC8=O)CC7)CC5)CC6)nc4c3F)c12` (stereo partly drawn) [Compound 126, ((3R,7aR)-7a-(((7-(8-Ethynyl-7-fluoro-3-hydroxynaphthalen-1-yl)-8-fluoro-4-((R)-3-hydroxy-3-methylpiperidin-1-yl)pyrido[4,3-d]pyrimidin-2-yl)oxy)methyl)hexahydro-1H-pyrrolizin-3-yl)methyl 4-((4-(1-(2,6-dioxopiperidin-3-yl)-3-methyl-2-oxo-2,3-dihydro-1H-benzo[d]imidazol-5-yl)piperidin-1-yl)methyl) piperidine-1-carboxylate]: the DC50 on KRAS G12D (setting [1]) was over 38.3 nM; on KRAS, under 1 nM; at KRAS G12V, under 10 nM.

Turning to `CCc1c(F)ccc2cc(O)cc(-c3ncc4c(N5CCC[C@@](C)(O)C5)nc(OC[C@@]56CCCN5[C@@H](COC(=O)N5CCC(CN7CCC(c8cc9c(cc8F)n(C8CCC(=O)NC8=O)c(=O)n9C)CC7)CC5)CC6)nc4c3F)c12` (stereo partly drawn) [Compound 426, ((3R,7aS)-7a-(((7-(8-ethyl-7-fluoro-3-hydroxynaphthalen-1-yl)-8-fluoro-4-((R)-3-hydroxy-3-methylpiperidin-1-yl)pyrido[4,3-d]pyrimidin-2-yl)oxy)methyl)hexahydro-1H-pyrrolizin-3-yl)methyl 4-((4-(1-(2,6-dioxopiperidin-3-yl)-6-fluoro-3-methyl-2-oxo-2,3-dihydro-1H-benzo[d]imidazol-5-yl)piperidin-1-yl)methyl)piperidine-1-carboxylate], the DC50 on KRAS G12D (class symbols) was under 100 nM; on KRAS it was under 1 nM; at KRAS G12V, 10 to 100 nM.

Regarding `CCc1c(F)ccc2cc(O)cc(-c3ncc4c(N5CCC[C@@](C)(O)C5)nc(OC[C@@]56CCCN5[C@H](COC(=O)N5CCC7(CCC(N8CCC(c9ccc%10c(c9)n(C)c(=O)n%10C9CCC(=O)NC9=O)CC8)CC7)CC5)CC6)nc4c3F)c12` (stereo partly drawn) [Compound 465, ((3S,7aS)-7a-(((7-(8-ethyl-7-fluoro-3-hydroxynaphthalen-1-yl)-8-fluoro-4-((R)-3-hydroxy-3-methylpiperidin-1-yl)pyrido[4,3-d]pyrimidin-2-yl)oxy)methyl)hexahydro-1H-pyrrolizin-3-yl)methyl 9-(4-(1-(2,6-dioxopiperidin-3-yl)-3-methyl-2-oxo-2,3-dihydro-1H-benzo[d]imidazol-5-yl)piperidin-1-yl)-3-azaspiro[5.5]undecane-3-carboxylate], the figures for the DC50 at KRAS G12D (class symbols), on KRAS and on KRAS G12V were under 100 nM, under 1 nM and under 10 nM, respectively.

In the case of `CCc1c(F)ccc2cc(O)cc(-c3ncc4c(N5CCC(F)(F)CC5)nc(OC[C@@]56CCCN5[C@H](COC(=O)N5CCC7(CC5)CC(N5CCC(c8ccc9c(c8)n(C)c(=O)n9C8CCC(=O)NC8=O)CC5)C7)CC6)nc4c3F)c12` (stereo partly drawn) [Compound 357, ((3S,7aS)-7a-(((4-(4,4-difluoropiperidin-1-yl)-7-(8-ethyl-7-fluoro-3-hydroxynaphthalen-1-yl)-8-fluoropyrido[4,3-d]pyrimidin-2-yl)oxy)methyl)hexahydro-1H-pyrrolizin-3-yl)methyl 2-(4-(1-(2,6-dioxopiperidin-3-yl)-3-methyl-2-oxo-2,3-dihydro-1H-benzo[d]imidazol-5-yl)piperidin-1-yl)-7-azaspiro[3.5]nonane-7-carboxylate], the values for the DC50 at KRAS G12D (setting [1]), at KRAS and on KRAS G12V were over 100 nM, 1 to 10 nM and over 100 nM, respectively.

For `CCc1c(F)ccc2cc(O)cc(-c3ncc4c(N5CCC[C@@](C)(O)C5)nc(OC[C@@]56CCCN5[C@H](COC(=O)N5CCC(CN7CCC(c8ccc9c(c8)n(C)c(=O)n9C8CCC(=O)NC8=O)CC7)C(F)(F)C5)CC6)nc4c3F)c12` (stereo partly drawn) [Compound 397, ((3S,7aS)-7a-(((7-(8-ethyl-7-fluoro-3-hydroxynaphthalen-1-yl)-8-fluoro-4-((R)-3-hydroxy-3-methylpiperidin-1-yl)pyrido[4,3-d]pyrimidin-2-yl)oxy)methyl)hexahydro-1H-pyrrolizin-3-yl)methyl 4-((4-(1-(2,6-dioxopiperidin-3-yl)-3-methyl-2-oxo-2,3-dihydro-1H-benzo[d]imidazol-5-yl)piperidin-1-yl)methyl)-3,3-difluoropiperidine-1-carboxylate], the DC50 at KRAS G12D (class symbols) is under 100 nM; at KRAS, under 1 nM; at KRAS G12V, under 10 nM.

With `C#Cc1c(F)ccc2cc(O)cc(-c3ncc4c(N5CCC[C@@](C)(O)C5)nc(OC[C@@]56CCCN5[C@H](COC(=O)N5CC7(CCC(CN8CCC(c9ccc%10c(c9)n(C)c(=O)n%10C9CCC(=O)NC9=O)CC8)CC7)C5)CC6)nc4c3F)c12` (stereo partly drawn) [Compound 421, ((3S,7aS)-7a-(((7-(8-ethynyl-7-fluoro-3-hydroxynaphthalen-1-yl)-8-fluoro-4-((R)-3-hydroxy-3-methylpiperidin-1-yl)pyrido[4,3-d]pyrimidin-2-yl)oxy)methyl)hexahydro-1H-pyrrolizin-3-yl)methyl 7-((4-(1-(2,6-dioxopiperidin-3-yl)-3-methyl-2-oxo-2,3-dihydro-1H-benzo[d]imidazol-5-yl)piperidin-1-yl)methyl)-2-azaspiro[3.5]nonane-2-carboxylate], the DC50 is under 100 nM on KRAS G12D (class symbols), under 1 nM at KRAS and under 10 nM on KRAS G12V.

Turning to `CCc1c(F)ccc2cc(O)cc(-c3ncc4c(N5CCC[C@@](C)(O)C5)nc(OC[C@@]56CCCN5[C@@H](COC(=O)N5CCC(COc7ccc8c(c7)n(C)c(=O)n8C7CCC(=O)NC7=O)CC5)CC6)nc4c3F)c12` (stereo partly drawn) [Compound 314, ((3R,7aS)-7a-(((7-(8-ethyl-7-fluoro-3-hydroxynaphthalen-1-yl)-8-fluoro-4-((R)-3-hydroxy-3-methylpiperidin-1-yl)pyrido[4,3-d]pyrimidin-2-yl)oxy)methyl)hexahydro-1H-pyrrolizin-3-yl)methyl 4-(((1-(2,6-dioxopiperidin-3-yl)-3-methyl-2-oxo-2,3-dihydro-1H-benzo[d]imidazol-5-yl)oxy)methyl)piperidine-1-carboxylate], the DC50 was over 100 nM at KRAS G12D (setting [1]), at least 10 nM on KRAS and over 100 nM on KRAS G12V.

As for `CCc1c(F)ccc2cc(O)cc(-c3ncc4c(N5CCC[C@@](C)(O)C5)nc(OC[C@@]56CCCN5[C@H](COC(=O)N5CCC7(CCC(CN8CCC(c9ccc%10c(c9)n(C)c(=O)n%10C9CCC(=O)NC9=O)CC8)CC7)C5)CC6)nc4c3F)c12` (stereo partly drawn) [Compound 457, ((3S,7aS)-7a-(((7-(8-ethyl-7-fluoro-3-hydroxynaphthalen-1-yl)-8-fluoro-4-((R)-3-hydroxy-3-methylpiperidin-1-yl)pyrido[4,3-d]pyrimidin-2-yl)oxy)methyl)hexahydro-1H-pyrrolizin-3-yl)methyl 8-((4-(1-(2,6-dioxopiperidin-3-yl)-3-methyl-2-oxo-2,3-dihydro-1H-benzo[d]imidazol-5-yl)piperidin-1-yl)methyl)-2-azaspiro[4.5]decane-2-carboxylate], the DC50 is under 100 nM at KRAS G12D (class symbols), under 1 nM on KRAS and under 10 nM at KRAS G12V.

These data come from patent US12599672B2, “KRAS proteolysis targeting chimeras” (PAQ Therapeutics Inc., priority 2023, dated 2026).
